Test results: US9018391B2, “Inhibitors of beta-secretase” (Boehringer Ingelheim International GmbH, priority 2012, dated 2015)

How the values were obtained:
hERG channel = hERG channel (Homo sapiens (Human), UniProt Q12809); experiment: hERG-Channel Assay (Assay 2), whole-cell patch clamp in HEK293 cells stably transfected with hERG cDNA; format: cell-based; conditions: for inhibition at 10 µM: human, HEK293 cells stably transfected with hERG cDNA, pH 7.4, 35° C.
Description: hERG-Channel Assay (Assay 2)
Cells: HEK (human embryonic kidney) 293 cells were stably transfected with hERG cDNA.
Cells were superfused with a bath solution containing (mM): NaCl (137), KCl (4.0), MgCl2 (1.0), CaCl2 (1.8), Glucose (10), HEPES (10), pH 7.4 with NaOH. Patch pipettes were made from borosilicate glass tubing using a horizontal puller and filled with pipette solution containing (mM): K-aspartate (130), MgCl2 (5.0), EGTA (5.0), K2ATP (4.0), HEPES (10.0), pH 7.2 with KOH. Resistance of the microelectrodes was in the range between 2 and 5 MΩ.
Stimulation and Recording:
Membrane currents were recorded using an EPC-10 patch clamp amplifier and PatchMaster software. hERG-mediated membrane currents were recorded at 35° C., using the whole-cell configuration of the patch-clamp technique. Transfected HEK293 cells were clamped at a holding potential of −60 mV and hERG-mediated inactivating tail currents were elicited using a pulse pattern with fixed amplitudes (activation/inactivation: 40 mV for 2000 ms; recovery: −120 mV for 2 ms; ramp to 40 mV in 2 ms; inactivating tail current: 40 mV for 50 ms) repeated at 15 s intervals. During each inter-pulse interval, 4 pulses scaled down by a factor of 0.2 were recorded for a P/n leak subtraction procedure. Rs compensation was employed up to a level that safely allowed recording devoid of ringing.
Compound Preparation and Application:
The different concentrations of the test compounds were applied sequentially on each of the different cells investigated. A steady state level of baseline current was measured for at least 6 sweeps prior to the application of the first test compound concentration.
The test compound was dissolved in DMSO to yield a master stock solution which was diluted further in DMSO to stock solutions needed for the lower concentrations. Final dilutions in extracellular buffer were prepared freshly from these stocks by a 1:1000 dilution step each before starting the experiments.
Peak current amplitudes were measured 3 ms after the ramp to +40 mV. For baseline and each concentration, the peak currents of the three last sweeps before application of the next concentration were averaged. Residual currents (I/I0) were calculated for each cell as the fraction of actual average peak current and average baseline peak current.

[1] = molecular target: truncated human beta-secretase, BACE1 (amino acids 1-454) (Homo sapiens (Human), UniProt P56817); experiment: BACE1 Assay (Assay 1), fluorescence quench assay; format: biochemical; conditions: pH 4.4
Experimental: The substrate was dissolved at 1 mg/ml in DMSO.
The assay was performed in the presence of OptiMEM™ (supernatant collected over 24 h and cleared from cellular debris by centrifugation) containing the ectodomain of BACE1, 25 μl water containing the desired 2-fold concentration of test compound and 2% DMSO, 1 μM substrate peptide, 20 mM NaOAc, pH 4.4, and 0.04% Triton-X100 in a total assay volume of 50 μl in a 384 well plate. In general, 25 μl of compound dilution were added to the plate followed by the addition of 10 μl of BACE1 containing OptiMEM™ diluted 1:10 in water with 0.2% Triton X-100. The reaction was started with the addition of 15 μl substrate in NaOAc buffer. The reaction was incubated at rt (dark) in an Envision® multilabel reader (Perkin Elmer) and the cleavage of the substrate was recorded as kinetic for […] at ex: 485 nm, em: 538 nm. Blank wells containing no enzyme were included on each plate.
The intensity of fluorescence was regressed against time in order to derive velocities of reaction in all 384 wells. These velocities were used for calculating percent control using an uninhibited control containing 1% DMSO as 100% and a blank control performed in the absence of enzyme as 0%. IC50 values were calculated by fitting percent control vs. test compound concentration using Assay Explorer®.

[2] = In Vitro Phospholipidosis Assay (Assay 3), Nile red staining; format: cell-based, human; conditions: human, first effect concentration, U937 cells, read-out: Phospholipidosis FEC IC50 μM (assay 3)
Experimental: In Vitro Phospholipidosis Assay (Assay 3)
The phospholipidogenic potential of test compounds was assayed using the human hematopoetic U937 cell line. The test principle was to analyze the phospholipid content by staining the cells with the fluorescent dye Nile red.
U937 cells were seeded into cell culture plates at 0.5×10^6 cells/mL in RPMI medium containing 10% FBS, 1% DMSO, and 0.005% gentamicin. The cells were cultivated with or without different concentrations of test compound for 48 h under standard culture conditions.
For harvesting, the cells were centrifuged at 130×g for 4 min and washed once with PBS. Then, 2×0.5 mL cell suspensions were prepared for non-fixed cell measurement (0.5 mL for propidium iodide (PI) viability measurement and 0.5 mL for Nile red measurement).
The remaining cells were fixed with 3.7% formaldehyde for 30 min. After a further centrifugation step, cells were resuspended with 1.3 mL Nile red working solution (1 μg/mL) and incubated for 5 min at rt. The cell suspension was washed twice with 3 mL PBS and centrifuged with 130×g for 4 min. The supernatant was discarded and the cells were resuspended with 0.5 mL PBS and kept for flow cytometry measurement.
For Nile red staining of the 0.5 mL non-fixed cell samples, 50 μL of a ready to use Nile red solution (10 μg/mL) were added per sample. Samples were kept on ice for 5 min. Thereafter, they were washed once with 4 mL PBS (4° C., 250×g for 8 min) and finally resuspended in 400 μL PBS and kept for flow cytometry measurement.
For the viability measurement, 12.5 μL of the ready to use PI solution (10 μg/mL) were added to the 0.5 mL non-fixed cell suspension. After 15 min of incubation on ice, the samples were measured by flow cytometry using a Coulter Epics XL/MCL flow cytometer.
The viability of the cells of each sample was determined by flow cytometry measurement of the PI content at channel 2 (568-590 nm). Cut-off gates for the fluorescence-dependent differentiation between live and dead cells were defined based on the analysis of cell culture medium control samples.
Only samples with a cell viability of >=90% relative to control samples were analyzed for phospholipidosis. Each Nile red sample (non-fixed and fixed samples) was measured by flow cytometry at channel 1 (504-541 nm) and channel 4 (660-680 nm).
For each channel, relative Nile red fluorescence intensity of a test sample was calculated compared to control samples and expressed as a percentage of control fluorescence intensity. The assessment of the phospholipidogenic potential and the first effective concentration (FEC) of a test compound was done manually based on the fluorescence intensities at both wavelengths for the fixed cells, as well as for the non-fixed cells.

Human Hepatocytes = experiment: In Vitro Hepatocyte Stability Assay (Assay 4); format: in vitro ADME; conditions: predicted blood clearance as percent of hepatic blood flow
Experimental: In Vitro Hepatocyte Stability Assay (Assay 4)
The metabolic degradation of test compounds was assayed in a hepatocyte suspension. Cryopreserved hepatocytes were incubated in an appropriate buffer system (e.g., Dulbecco's modified eagle medium plus 3.5 μg glucagon/500 mL, 2.5 mg insulin/500 mL and 3.75 mg/500 mL hydrocortison) containing 5% species serum. Following a 30 min preincubation in an incubator (37° C., 10% CO2), 5 μl of test compound solution (80 μM; from 2 mM in DMSO stock solution diluted 1:25 with medium) were added into 395 μl hepatocyte suspension (cell density in the range 0.25−5×10^6 cells/mL, typically 1×10^6 cells/mL; final concentration of test compound final DMSO concentration […]).
The cells were incubated for six h (incubator, orbital shaker) and samples (25 μl) were taken at 0, 0.5, 1, 2, 4 and 6 h. Samples were transferred into acetonitrile and pelleted by centrifugation (5 min). The supernatant was transferred to a new 96 DeepWell™ plate, evaporated under nitrogen and resuspended. Decline of compound was analyzed by HPLC-MS/MS. CLint (in vitro hepatic intrinsic clearance) was calculated as follows: CLint=Dose/AUC=(C0/CD)/(AUD+Clast/k)×1000/60
C0: initial concentration in the incubation [μM];
CD: cell density of vital cells [cells/mL];
AUD: area under the data [μM×h];
Clast: concentration of last data point [μM];
k: slope of the regression line for compound decline [h^−1].
The calculated in vitro hepatic intrinsic clearance was scaled up to the intrinsic in vivo hepatic clearance (Clint in vivo) and used to predict hepatic in vivo blood clearance (CL) by the use of a liver model (well-stirred model), as follows: CLint,in vivo[mL/min/kg]=(CLint[μL/min/10^6 cells]×hepatocellularity[10^6 cells/g liver]×liver factor [g/kg body weight])/1000 CL[mL/min/kg]=CLint,to vivo×hepatic blood flow[ml/min/kg]/(CLint,in vivo[ml/min/kg]+hepatic blood flow[mL/min/kg])
The in vivo blood clearance was transformed into percent of the hepatic blood flow (% Qh): % Qh=CL[mL/min/kg]/hepatic blood flow[mL/min/kg])×100
Hepatocellularity, human: 1.2×10^7 cells/g liver;
Liver factor, human: 25.7 g/kg body weight;
Hepatic blood flow, human: 21 mL/(min×kg).

Chain of truncated human beta-secretase, BACE1 (amino acids 1-454) (P56817 22-454): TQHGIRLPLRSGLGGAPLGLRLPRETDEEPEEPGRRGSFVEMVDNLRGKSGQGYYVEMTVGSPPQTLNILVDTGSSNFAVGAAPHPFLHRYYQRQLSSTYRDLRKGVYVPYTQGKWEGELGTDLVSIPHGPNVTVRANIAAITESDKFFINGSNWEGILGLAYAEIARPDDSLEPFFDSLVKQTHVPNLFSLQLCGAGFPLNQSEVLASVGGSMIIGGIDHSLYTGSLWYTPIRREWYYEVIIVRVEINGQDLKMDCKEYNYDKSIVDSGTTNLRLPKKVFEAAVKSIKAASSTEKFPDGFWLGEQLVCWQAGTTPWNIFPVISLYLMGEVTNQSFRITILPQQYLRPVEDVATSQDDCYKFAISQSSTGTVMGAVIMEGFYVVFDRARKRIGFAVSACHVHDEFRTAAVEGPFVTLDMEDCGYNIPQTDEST
Chain of hERG channel (Q12809 whole entry): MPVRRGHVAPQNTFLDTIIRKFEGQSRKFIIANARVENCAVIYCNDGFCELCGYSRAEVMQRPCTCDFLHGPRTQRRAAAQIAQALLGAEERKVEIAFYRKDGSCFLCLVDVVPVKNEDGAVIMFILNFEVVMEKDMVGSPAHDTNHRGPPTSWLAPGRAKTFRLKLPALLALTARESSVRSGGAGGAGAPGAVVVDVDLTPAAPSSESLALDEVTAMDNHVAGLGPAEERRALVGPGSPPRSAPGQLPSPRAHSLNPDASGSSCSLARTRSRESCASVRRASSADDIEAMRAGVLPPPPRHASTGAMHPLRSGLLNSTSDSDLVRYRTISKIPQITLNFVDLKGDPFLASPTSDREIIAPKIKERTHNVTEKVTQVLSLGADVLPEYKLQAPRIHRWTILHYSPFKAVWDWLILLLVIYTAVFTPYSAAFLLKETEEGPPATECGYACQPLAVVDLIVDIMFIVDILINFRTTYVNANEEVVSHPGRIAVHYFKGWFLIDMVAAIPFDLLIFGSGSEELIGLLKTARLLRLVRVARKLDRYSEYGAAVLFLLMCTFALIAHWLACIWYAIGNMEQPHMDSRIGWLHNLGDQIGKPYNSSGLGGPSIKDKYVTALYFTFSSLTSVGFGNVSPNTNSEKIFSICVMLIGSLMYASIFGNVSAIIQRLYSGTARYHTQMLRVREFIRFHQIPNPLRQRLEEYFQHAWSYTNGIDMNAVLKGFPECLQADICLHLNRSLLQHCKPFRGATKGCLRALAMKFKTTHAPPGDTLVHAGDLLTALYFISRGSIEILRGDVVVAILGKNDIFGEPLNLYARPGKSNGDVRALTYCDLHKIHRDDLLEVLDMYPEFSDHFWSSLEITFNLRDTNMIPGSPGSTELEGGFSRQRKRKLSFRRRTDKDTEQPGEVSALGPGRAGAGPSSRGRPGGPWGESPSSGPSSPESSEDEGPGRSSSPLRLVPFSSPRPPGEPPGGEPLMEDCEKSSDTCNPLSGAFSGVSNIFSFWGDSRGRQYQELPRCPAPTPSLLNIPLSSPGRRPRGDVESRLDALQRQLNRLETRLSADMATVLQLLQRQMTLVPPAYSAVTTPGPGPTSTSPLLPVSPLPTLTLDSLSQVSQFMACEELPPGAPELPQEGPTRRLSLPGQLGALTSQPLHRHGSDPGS

Row | Compound | inhibition at 10 µM (hERG channel) [%] | IC50 [1] [nM] | IC50 at 48 h [2] [µM] | In vitro Human Hepatocytes % Qh @ 1 μM (assay 4) (Human Hepatocytes) [% Qh] | % Inhibition hERG @ 10 μM (assay 2) (hERG channel; 35° C.) [%]
1 | C[C@@H]1C[C@@]2(Cc3ccc(C#N)cc3[C@]23N=C(N)N(CC(C)(C)Cl)C3=O)C[C@H](C)[C@H]1O [Example 3] | 20 | 3 | 200 | 3.1 | 
2 | C[C@@H]1C[C@@]2(Cc3ccc(-c4cncnc4)cc3[C@]23N=C(N)N(CC(C)(C)F)C3=O)C[C@H](C)[C@H]1O [Example 5] | 12 | 2.6 | 400 | 6.1 | 
3 | C[C@@H]1C[C@@]2(Cc3ccc(NC(=O)C(C)(C)F)cc3[C@]23N=C(N)N(CC(C)(C)F)C3=O)C[C@H](C)[C@H]1O [Example 6] | 1.8 | 6.3 | 400 | 11 | 
4 | CC[C@@H]1C[C@@]2(Cc3ccc(C#N)cc3[C@]23N=C(N)N(C[C@H]2COCCO2)C3=O)C[C@H](C)[C@H]1O [Example 8] | 6 | 1.9 | 800 | 19.1 | 
5 | C[C@@H]1C[C@@]2(Cc3ccc(C#N)cc3[C@]23N=C(N)N(CC2CC2)C3=O)C[C@H](C)[C@H]1O [Example 10] | 33 | 10.6 | > 100 | 0 | 
6 | C[C@@H]1CC2(Cc3ccc(Cl)cc3[C@]23N=C(N)N(Cc2ncccn2)C3=O)C[C@H](C)[C@H]1O (stereo partly shown) [Example 11] | 19 | 14.6 | 200 | 0 | 
7 | C[C@H]1C[C@@]2(CC[C@@H]1O)Cc1ccc(-c3cccnc3)cc1[C@]21N=C(N)N(Cc2ncccn2)C1=O [Example 12] | 15 | 6.8 | 100 | 0 | 
8 | C[C@H]1C[C@@]2(CC[C@@H]1O)Cc1ccc(C#N)cc1[C@]21N=C(N)N(CC2CC(F)(F)C2)C1=O [Example 13] | 12 | 8.7 | 200 | 4.2 | 
9 | COC1CCC2(CC1)Cc1ccc(C#N)cc1[C@]21N=C(N)N(C)C1=O (stereo partly shown) [drawing 10, reference compound] | 90 |  | 400 | 14 | 
10 | COC1CCC2(CC1)Cc1ccc(C#CC3CC3)cc1C21N=C(N)N(Cc2ncco2)C1=O (stereo not shown) [drawing 13, reference compound] | 60 | 5.1 |  | 8.5 | 
11 | COC1CCC2(CC1)Cc1ccc(C#CC3CC3)cc1C21N=C(N)N(Cc2ncco2)C1=O (stereo not shown) [drawing 17, reference compound] |  | 5.1 |  | 8.5 | 60
12 | CO[C@H]1CC[C@]2(CC1)Cc1ccc(OCC3CC3)cc1C21N=C(N)N(CCC(F)(F)F)C1=O (stereo partly shown) [reference compound] | 87 | 8.3 |  |  | 
13 | CO[C@H]1CC[C@]2(CC1)Cc1ccc(CCC(C)C)cc1C21N=C(N)N(CC(F)(F)F)C1=O (stereo partly shown) [reference compound] | 89 | 3.5 |  | 88 | 
14 | COCC(C)N1C(=O)C2(N=C1N)c1cc(C#N)ccc1CC21CCC(OC)CC1 (stereo not shown) [reference compound] |  | 256 |  |  | 
15 | COC1CCC2(CC1)Cc1ccc(Cl)cc1[C@]21N=C(N)N(C)C1=O (stereo partly shown) [reference compound] | 58 |  | 100 |  | 
